Test results published in ChEMBL document CHEMBL5465560, “Selectivity Literature for EUbOPEN Chemogenomic Library” (2024).

What was measured:
[1] = molecular target: Serine/threonine-protein kinase PAK 2 (Homo sapiens) (UniProt Q13177); assay: Selectivity interaction (KinomeScan (DiscoverX)) EUB0001049a PAK2; conditions: at 1 µM
[2] = molecular target: Dual specificity mitogen-activated protein kinase kinase 2 (Homo sapiens) (UniProt P36507); assay: Selectivity interaction (KinomeScan (DiscoverX)) EUB0000666a MAP2K2; conditions: at 10 µM
[3] = molecular target: Myosin light chain kinase family member 4 (Homo sapiens, UniProt Q86YV6); assay: Selectivity interaction (NanoBRET assay (HEK293T cells)) EUB0001550a MYLK4; format: cell-based, HEK-293T
[4] = molecular target: Serine/threonine-protein kinase MARK1 (Homo sapiens) (UniProt Q9P0L2); conditions: at 10 µM
[5] = molecular target: cAMP-dependent protein kinase catalytic subunit alpha (Homo sapiens, UniProt P17612); assay: Selectivity interaction (KinomeScan (DiscoverX)) EUB0000595a PRKACA; conditions: at 10 µM
[6] = molecular target: T1, Tyrosine-protein kinase ZAP-70 (Homo sapiens) (UniProt P43403); assay: Selectivity interaction (KinomeScan (DiscoverX)) EUB0000618a ZAP70; conditions: at 10 µM
T1 sequence (whole entry): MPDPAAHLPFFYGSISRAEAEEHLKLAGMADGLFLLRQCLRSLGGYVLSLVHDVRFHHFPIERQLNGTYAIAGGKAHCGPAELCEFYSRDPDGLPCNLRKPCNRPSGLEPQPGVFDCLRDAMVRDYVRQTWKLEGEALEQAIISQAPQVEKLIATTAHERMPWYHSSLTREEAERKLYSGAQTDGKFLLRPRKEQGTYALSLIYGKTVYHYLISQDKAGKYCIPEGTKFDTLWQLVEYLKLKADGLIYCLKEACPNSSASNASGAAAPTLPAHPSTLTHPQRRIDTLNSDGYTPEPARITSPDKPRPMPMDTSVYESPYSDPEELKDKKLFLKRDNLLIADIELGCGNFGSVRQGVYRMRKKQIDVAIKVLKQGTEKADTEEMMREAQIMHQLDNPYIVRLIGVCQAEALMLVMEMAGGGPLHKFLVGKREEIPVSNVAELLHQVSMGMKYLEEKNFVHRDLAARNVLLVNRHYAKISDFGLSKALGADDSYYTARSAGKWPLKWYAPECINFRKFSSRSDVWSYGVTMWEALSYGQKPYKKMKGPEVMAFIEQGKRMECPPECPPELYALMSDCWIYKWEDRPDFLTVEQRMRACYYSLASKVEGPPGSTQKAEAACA

[7] = molecular target: ALK tyrosine kinase receptor (Homo sapiens, UniProt Q9UM73); assay: Selectivity interaction (KinomeScan (DiscoverX)) EUB0000618a ALK; conditions: at 10 µM
[8] = molecular target: Serine/threonine-protein kinase 26 (Homo sapiens, UniProt Q9P289); conditions: at 1 µM
[9] = molecular target: T2, Inhibitor of nuclear factor kappa-B kinase subunit beta (Homo sapiens) (UniProt O14920); assay: Selectivity interaction (KinomeScan (DiscoverX)) EUB0000695a IKBKB; conditions: at 100 nM
T2 sequence (whole entry): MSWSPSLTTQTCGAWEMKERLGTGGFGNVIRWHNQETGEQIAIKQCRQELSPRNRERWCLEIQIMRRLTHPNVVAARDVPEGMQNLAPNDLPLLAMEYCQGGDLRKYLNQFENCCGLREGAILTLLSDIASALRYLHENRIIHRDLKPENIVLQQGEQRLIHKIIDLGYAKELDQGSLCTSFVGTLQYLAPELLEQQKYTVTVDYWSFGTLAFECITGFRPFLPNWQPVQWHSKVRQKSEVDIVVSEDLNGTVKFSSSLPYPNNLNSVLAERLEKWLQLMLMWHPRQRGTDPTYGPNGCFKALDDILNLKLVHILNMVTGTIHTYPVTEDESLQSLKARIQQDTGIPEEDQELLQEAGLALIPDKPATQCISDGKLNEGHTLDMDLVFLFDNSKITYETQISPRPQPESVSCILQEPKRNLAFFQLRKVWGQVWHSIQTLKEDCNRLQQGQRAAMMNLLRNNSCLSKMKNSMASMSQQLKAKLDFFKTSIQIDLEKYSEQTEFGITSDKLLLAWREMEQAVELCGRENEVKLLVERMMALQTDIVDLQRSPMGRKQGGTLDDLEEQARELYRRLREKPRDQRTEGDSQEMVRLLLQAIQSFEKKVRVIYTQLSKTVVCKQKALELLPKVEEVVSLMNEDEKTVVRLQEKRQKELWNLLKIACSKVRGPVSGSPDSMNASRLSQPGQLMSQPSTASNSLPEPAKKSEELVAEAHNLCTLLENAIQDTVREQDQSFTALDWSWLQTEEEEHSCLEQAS

[10] = molecular target: Protein-tyrosine kinase 2-beta (Homo sapiens) (UniProt Q14289); assay: Selectivity interaction (SelectScreen profiling (Invitrogen)) EUB0000607a PTK2B; conditions: at 2 µM
[11] = molecular target: T3, MAP/microtubule affinity-regulating kinase 4 (Homo sapiens) (UniProt Q96L34); assay: Selectivity interaction (Kinase panel (Z-LYTE Assay)) EUB0001632a MARK4; conditions: at 10 µM
T3 sequence (whole entry): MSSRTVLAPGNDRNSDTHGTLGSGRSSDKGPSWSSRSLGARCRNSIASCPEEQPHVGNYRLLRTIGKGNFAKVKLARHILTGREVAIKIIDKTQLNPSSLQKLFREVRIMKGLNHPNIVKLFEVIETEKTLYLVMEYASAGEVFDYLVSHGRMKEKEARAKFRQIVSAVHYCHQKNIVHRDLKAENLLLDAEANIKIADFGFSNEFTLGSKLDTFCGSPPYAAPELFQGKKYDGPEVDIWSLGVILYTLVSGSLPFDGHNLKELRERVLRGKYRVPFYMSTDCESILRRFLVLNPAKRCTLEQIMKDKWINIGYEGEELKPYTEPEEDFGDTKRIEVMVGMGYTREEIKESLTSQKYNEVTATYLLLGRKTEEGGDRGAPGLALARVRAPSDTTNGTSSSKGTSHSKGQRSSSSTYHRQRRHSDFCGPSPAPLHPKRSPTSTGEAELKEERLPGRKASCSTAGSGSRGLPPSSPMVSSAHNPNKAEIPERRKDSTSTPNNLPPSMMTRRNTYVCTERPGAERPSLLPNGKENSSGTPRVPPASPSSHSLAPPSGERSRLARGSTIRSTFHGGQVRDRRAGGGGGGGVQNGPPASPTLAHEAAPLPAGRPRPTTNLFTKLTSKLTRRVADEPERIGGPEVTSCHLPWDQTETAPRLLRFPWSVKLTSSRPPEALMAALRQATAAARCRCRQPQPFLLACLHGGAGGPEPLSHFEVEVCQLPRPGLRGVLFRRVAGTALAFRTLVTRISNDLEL

[12] = system: Fibroblast growth factor receptor 1 (Homo sapiens), P11362 [V561M]; assay: (§1) Selectivity interaction (ProQinase) EUB0000171b FGFR1
[13] = molecular target: Fibroblast growth factor receptor 1 (Homo sapiens, UniProt P11362); assay: as §1
Fibroblast growth factor receptor 1, sequence (P11362 22-822 limits assumed): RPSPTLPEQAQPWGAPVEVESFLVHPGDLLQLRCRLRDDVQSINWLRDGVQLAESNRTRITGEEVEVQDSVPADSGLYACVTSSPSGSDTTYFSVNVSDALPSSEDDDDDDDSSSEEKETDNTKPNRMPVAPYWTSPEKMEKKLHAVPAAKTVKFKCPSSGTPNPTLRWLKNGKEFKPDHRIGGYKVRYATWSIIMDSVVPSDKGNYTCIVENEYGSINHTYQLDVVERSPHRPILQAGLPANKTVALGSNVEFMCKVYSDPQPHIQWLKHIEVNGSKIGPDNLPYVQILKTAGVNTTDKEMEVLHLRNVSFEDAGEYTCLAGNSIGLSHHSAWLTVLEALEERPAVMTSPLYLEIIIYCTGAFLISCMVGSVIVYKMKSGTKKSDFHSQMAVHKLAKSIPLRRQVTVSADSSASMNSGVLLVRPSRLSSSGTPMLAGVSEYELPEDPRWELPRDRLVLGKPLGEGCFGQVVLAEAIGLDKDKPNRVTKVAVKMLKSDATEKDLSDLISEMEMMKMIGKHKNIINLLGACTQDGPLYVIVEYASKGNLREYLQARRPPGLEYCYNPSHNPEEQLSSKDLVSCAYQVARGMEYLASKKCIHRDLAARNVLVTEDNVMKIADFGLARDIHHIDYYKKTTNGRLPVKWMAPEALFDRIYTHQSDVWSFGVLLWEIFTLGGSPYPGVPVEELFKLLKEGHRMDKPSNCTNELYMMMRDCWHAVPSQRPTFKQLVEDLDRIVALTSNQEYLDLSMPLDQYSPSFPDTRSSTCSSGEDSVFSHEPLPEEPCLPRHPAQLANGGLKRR

Fibroblast growth factor receptor 1 (Homo sapiens), P11362 [V561M], sequence (P11362 whole entry V561M): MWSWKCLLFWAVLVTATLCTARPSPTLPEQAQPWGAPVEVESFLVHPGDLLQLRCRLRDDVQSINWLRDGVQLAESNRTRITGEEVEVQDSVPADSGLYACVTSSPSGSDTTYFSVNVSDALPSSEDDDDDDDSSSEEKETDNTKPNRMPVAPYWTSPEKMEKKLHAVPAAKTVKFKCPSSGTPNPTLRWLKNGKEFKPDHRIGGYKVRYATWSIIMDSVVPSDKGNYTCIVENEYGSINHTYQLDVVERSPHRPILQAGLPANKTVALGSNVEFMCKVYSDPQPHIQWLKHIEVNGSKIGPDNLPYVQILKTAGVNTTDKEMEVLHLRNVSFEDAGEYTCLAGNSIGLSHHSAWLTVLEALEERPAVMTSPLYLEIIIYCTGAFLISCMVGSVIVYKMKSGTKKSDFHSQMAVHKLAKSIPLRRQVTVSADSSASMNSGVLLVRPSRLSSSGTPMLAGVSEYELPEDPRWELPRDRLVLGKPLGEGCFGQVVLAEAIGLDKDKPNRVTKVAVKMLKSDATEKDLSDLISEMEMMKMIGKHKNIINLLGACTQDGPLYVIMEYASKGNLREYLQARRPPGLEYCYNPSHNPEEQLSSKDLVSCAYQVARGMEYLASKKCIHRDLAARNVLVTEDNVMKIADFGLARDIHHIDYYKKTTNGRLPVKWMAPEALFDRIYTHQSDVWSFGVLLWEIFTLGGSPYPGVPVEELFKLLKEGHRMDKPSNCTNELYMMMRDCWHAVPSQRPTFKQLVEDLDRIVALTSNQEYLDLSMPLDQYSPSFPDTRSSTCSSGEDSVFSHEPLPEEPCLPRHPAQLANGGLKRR
Serine/threonine-protein kinase 26, sequence (Q9P289 2-416 limits assumed): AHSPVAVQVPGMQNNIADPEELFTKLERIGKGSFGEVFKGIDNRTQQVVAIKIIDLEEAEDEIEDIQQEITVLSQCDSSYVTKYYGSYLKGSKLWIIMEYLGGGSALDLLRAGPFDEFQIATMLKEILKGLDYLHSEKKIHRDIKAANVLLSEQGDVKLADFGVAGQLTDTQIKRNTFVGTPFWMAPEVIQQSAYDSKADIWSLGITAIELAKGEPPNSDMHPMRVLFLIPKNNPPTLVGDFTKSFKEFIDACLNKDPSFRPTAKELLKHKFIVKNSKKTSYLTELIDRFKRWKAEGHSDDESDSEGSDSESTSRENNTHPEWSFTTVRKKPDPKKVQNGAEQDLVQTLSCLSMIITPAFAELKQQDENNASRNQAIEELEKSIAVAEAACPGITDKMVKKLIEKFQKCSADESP
Serine/threonine-protein kinase PAK 2 (Homo sapiens), sequence (Q13177 whole entry): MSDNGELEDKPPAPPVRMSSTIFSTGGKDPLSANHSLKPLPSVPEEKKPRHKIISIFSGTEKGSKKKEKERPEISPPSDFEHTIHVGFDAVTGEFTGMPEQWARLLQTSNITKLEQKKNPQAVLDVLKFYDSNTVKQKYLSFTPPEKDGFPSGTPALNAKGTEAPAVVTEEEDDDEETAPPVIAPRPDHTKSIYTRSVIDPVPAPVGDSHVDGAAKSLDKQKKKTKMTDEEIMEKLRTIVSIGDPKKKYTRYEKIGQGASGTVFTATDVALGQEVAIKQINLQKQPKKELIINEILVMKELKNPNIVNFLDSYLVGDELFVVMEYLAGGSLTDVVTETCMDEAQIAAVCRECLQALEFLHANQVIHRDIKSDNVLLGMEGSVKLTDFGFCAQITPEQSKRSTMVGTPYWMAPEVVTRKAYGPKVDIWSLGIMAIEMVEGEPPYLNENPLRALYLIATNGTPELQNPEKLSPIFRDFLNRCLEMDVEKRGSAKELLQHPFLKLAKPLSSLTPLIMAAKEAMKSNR
Serine/threonine-protein kinase MARK1 (Homo sapiens), sequence (Q9P0L2 whole entry, looked up): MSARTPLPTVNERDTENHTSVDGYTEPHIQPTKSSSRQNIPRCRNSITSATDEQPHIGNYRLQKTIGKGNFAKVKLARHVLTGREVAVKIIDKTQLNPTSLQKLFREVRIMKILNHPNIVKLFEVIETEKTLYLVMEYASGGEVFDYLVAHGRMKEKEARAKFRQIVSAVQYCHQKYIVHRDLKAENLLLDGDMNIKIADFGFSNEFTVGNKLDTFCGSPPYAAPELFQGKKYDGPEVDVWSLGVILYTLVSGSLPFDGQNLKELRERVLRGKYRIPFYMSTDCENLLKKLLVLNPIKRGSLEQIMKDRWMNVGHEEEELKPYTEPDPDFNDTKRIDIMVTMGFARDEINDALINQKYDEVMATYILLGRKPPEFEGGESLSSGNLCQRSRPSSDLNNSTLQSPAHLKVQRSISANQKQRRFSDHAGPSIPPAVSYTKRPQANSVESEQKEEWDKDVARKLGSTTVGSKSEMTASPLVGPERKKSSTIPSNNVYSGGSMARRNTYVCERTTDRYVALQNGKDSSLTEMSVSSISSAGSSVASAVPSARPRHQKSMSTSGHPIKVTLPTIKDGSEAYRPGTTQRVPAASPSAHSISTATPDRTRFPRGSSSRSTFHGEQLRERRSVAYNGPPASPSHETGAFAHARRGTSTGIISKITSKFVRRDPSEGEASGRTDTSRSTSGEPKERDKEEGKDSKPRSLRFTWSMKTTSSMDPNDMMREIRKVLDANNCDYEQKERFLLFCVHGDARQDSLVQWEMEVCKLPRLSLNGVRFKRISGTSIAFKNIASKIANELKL
ALK tyrosine kinase receptor, sequence (Q9UM73 19-1620 limits assumed): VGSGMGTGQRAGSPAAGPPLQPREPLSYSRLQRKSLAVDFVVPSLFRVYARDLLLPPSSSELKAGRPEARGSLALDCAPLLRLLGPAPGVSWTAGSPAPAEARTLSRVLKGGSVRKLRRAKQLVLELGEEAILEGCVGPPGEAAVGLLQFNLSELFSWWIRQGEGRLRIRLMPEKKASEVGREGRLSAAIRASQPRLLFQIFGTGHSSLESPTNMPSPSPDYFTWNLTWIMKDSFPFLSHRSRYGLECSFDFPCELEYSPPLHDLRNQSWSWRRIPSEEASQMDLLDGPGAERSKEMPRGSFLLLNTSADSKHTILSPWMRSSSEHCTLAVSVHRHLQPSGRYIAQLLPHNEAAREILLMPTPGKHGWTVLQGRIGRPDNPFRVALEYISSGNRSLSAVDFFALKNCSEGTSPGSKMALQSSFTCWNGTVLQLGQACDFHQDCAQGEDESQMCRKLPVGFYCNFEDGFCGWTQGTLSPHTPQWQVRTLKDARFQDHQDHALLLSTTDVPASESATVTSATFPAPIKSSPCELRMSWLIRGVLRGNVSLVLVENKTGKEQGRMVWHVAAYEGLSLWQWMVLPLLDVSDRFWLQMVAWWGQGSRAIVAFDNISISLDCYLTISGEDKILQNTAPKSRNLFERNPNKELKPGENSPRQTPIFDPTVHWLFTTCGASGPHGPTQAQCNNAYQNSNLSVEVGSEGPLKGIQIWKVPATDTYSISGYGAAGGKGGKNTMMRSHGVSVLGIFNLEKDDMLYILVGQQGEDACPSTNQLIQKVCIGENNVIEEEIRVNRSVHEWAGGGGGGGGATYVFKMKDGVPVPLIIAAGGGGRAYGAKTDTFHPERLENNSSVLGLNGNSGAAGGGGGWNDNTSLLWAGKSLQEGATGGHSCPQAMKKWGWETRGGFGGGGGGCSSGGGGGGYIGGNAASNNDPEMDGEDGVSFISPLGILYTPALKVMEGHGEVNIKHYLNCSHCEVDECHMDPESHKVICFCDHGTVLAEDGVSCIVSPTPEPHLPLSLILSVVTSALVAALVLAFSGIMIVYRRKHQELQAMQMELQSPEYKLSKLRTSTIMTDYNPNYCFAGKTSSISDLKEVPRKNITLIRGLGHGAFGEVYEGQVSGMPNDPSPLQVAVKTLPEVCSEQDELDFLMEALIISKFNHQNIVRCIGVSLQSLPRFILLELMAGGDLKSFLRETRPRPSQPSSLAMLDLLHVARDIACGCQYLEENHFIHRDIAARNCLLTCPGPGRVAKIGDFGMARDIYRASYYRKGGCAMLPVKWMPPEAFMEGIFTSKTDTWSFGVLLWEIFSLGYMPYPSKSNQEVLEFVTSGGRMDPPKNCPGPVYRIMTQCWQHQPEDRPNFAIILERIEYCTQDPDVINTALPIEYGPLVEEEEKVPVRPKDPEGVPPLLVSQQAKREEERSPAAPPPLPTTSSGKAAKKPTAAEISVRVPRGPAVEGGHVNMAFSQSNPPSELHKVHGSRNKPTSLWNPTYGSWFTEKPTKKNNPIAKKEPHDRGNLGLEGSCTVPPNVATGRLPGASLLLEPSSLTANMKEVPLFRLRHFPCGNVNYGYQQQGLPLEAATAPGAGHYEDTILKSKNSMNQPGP

In the case of `COc1cc(Nc2nc(C)cc(-c3cnn4nc(OC)ccc34)n2)cc(C(F)(F)F)c1`, the % of control [1] is reported as 75%.
Work on `O=C(NOC[C@H](O)CO)c1ccc(F)c(F)c1Nc1ccc(I)cc1F` yielded a % of control [2] of 0.2%.
For `CN(C)CC#Cc1ccc2[nH]c3c(c2c1)-c1nc(N)ncc1CCC3`, the IC50 [3] was 270 nM.
For `CCN(CC)CCCCNc1ncc2cc(-c3cc(OC)cc(OC)c3)c(NC(=O)NC(C)(C)C)nc2n1`, the % of control [4] was 100%.
Compound `COCC(=O)NC/C=C/c1ccc2ncnc(Nc3ccc(Oc4ccc(C)nc4)c(C)c3)c2c1` [CP-724714] has a % of control [5] of 100%.
`O[C@H]1CC[C@H](Nc2ncc3nc(Nc4c(F)cc(F)cc4F)n([C@H]4CCOC4)c3n2)CC1` gave a % of control [6] of 100% and a % of control [7] of 100%.
`N#Cc1cccc(-c2c[nH]c3ncnc(N4CCOCC4)c23)c1` gave a % of control [8] of 7%.
For `Cc1cc(F)c(C(=O)Nc2cccc(-c3nncn3C(C)C)n2)cc1-n1cnc(C2CC2)c1`, the % of control [9] was 100%.
In the case of `CNC(=O)Nc1ccc(-c2nc(N3CC4CCC(C3)O4)c3cnn(C4CCC5(CC4)OCCO5)c3n2)cc1`, the % of inhibition [10] is reported as -3%.
With `Cn1cc(-n2cnc3c(NCc4nc5cc(Cl)c(Cl)cc5[nH]4)nc(N4CCOCC4)nc32)cn1` the % of control [11] was 18.7%.
`C=CC(=O)Nc1cccc(C(=O)Nc2ccc(Nc3cc(-c4[nH]c(SC)nc4C)ccn3)cc2)c1` was tested, and the % of control ([12]; at 1 µM) was 99%, the % of control ([12]; at 5 µM) was 65% and the % of control ([13]; at 1 µM) was 105%. The % of control ([13]; at 5 µM) was 87%.
